# Source: US9732087B2, “Diamino-pyridine, pyrimidine, and pyridazine modulators of the histamine H4 receptor” (JANSSEN PHARMACEUTICA NV, priority 2008, dated 2017)
# Counter-ions that a name gives are not always drawn. Like-named read-outs stand apart in the source and are kept apart here.
# Assays:
# [1] = target: T1, human H4 receptor (Homo sapiens (Human), UniProt Q9H3N8); test: cell-based; assay type: cell-based
# Method: SK-N-MC cell lines were created that express a reporter gene construct and the human H4 receptor full-coding region (NCBI accession No. AF312230). The reporter gene was β-galactosidase under the control of cyclic AMP-responsive elements. Cells were plated in 96-well plates the night before the assay. Histamine was used as the agonist for all assay. For the H4 receptor, the inhibition of forskolin-stimulated cAMP production was measured. For determination of antagonist activity, compounds were added 10 min prior to the addition of agonist, which was added directly to the cell medium. Forskolin (5 μM final concentration) was added 10 min after the addition of histamine. Cells were returned to the incubator for 6 h at 37° C. The medium was then aspirated, and the cells were washed with […] of phosphate-buffered saline (PBS). Cells were lysed with 25 μL of 0.1X assay buffer (10 mM sodium phosphate, pH 8, 0.2 mM MgSO4, and 0.01 mM MnCl2) and incubated at rt for 10 min. Cells were then incubated for 10 min with 100 μL of 1X assay buffer containing 0.5% (v/v) Triton X-100 and 40 mM β-mercaptoethanol. Color was developed using 25 μL of 1 mg/mL substrate solution (chlorophenol red β-D-galactopyranoside; Roche Applied Science, Indianapolis, Ind.). Color was quantitated on a microplate reader by measuring the absorbance at 570 nm. The data from each concentration-response curve were fitted to a sigmoidal curve to obtain the maximum response, Hill coefficient, and EC50 using Prism (GraphPad Software, San Diego, Calif.). Dose ratios were calculated from individual concentration-response curves of agonists at three to five antagonist concentrations. Apparent pA2 values were calculated using a Schild plot (ND=not determined).
# [2] = target: T1, human H4 receptor; test: Binding assay on recombinant human histamine H4 receptor ([3H]histamine competition, SK-N-MC cell membranes); conditions: [3H]histamine 10 nM, average of results
# Procedure, shortened: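 Membranes from SK-N-MC cells stably or transiently transfected with human H4 receptor, prepared by homogenization and 30,000 g centrifugation in Tris/EDTA. Bound [3H]histamine separated by rapid filtration on PEI-treated GF/C filters, washed with ice-cold Tris/EDTA, counted by scintillation. '>' values denote highest concentration tested.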
# [3] = apparent pA2 from Schild plot, antagonism of histamine inhibition of forskolin-stimulated cAMP, read-out: pA2 (converted)
# [4] = membranes harvested with 96 well Brandel system, read-out: Brandel Ki
# [5] = membranes harvested with cell harvester, read-out: Cell Harvester Ki
# [6] = apparent pA2 from Schild plot, antagonism of histamine inhibition of forskolin-stimulated cAMP
# T1 sequence (Q9H3N8 whole entry): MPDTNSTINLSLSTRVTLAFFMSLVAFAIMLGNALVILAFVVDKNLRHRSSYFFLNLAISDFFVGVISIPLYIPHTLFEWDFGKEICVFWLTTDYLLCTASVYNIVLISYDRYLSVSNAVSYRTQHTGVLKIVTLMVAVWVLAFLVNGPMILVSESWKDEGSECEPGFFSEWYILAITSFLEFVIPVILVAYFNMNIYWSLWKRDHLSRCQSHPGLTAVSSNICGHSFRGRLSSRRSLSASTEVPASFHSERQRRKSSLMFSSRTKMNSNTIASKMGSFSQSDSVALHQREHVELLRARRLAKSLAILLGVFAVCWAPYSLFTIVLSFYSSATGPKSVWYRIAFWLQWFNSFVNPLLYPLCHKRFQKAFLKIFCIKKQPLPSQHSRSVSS
SMILES,"Ki [2, 5]",further results
"CC(C)CNc1cc(N2CC[C@@H](N)C2)ccn1 [Example 20, 4-[(3R)-3-Aminopyrrolidin-1-yl]-N-(2-methylpropyl)pyridin-2-amine dihydrochloride]",,"Kb [1, 3]: 20 nM; Ki [2, 4]: 3.5 nM"
"CCCNc1cc(N2CC[C@@H](NC)C2)ccn1 [Example 3, 4-[(3R)-3-(Methylamino)pyrrolidin-1-yl]-N-propylpyridin-2-amine dihydrochloride]",7.26 nM,"Kb [1, 3]: 2 nM"
"CN[C@@H]1CCN(c2cnnc(NCC(C)(C)C)c2)C1 [Example 392, N-(2,2-Dimethylpropyl)-5-[(3R)-3-(methylamino)pyrrolidin-1-yl]pyridazin-3-amine]",18.3 nM,"Kb [1, 3]: 7.94 nM"
"CNC1CN(c2cnnc(NC3CC4CCC3C4)c2)C1 (stereo not shown) [Example 331, N-Bicyclo[2.2.1]hept-2-yl-5-[3-(methylamino)azetidin-1-yl]pyridazin-3-amine]",96.7 nM,"Kb [1, 3]: 39.8 nM"
"CN[C@H]1CCN(c2cnnc(NC3CCCC3)c2)C1 [Example 380, N-Cyclopentyl-5-[(3S)-3-(methylamino)pyrrolidin-1-yl]pyridazin-3-amine]",54.3 nM,"Kb [1, 3]: 63.1 nM"
"c1nnc(NC2CC3CCC2C3)cc1N1CCCNCC1 (stereo not shown) [Example 308, N-Bicyclo[2.2.1]hept-2-yl-5-(1,4-diazepan-1-yl)pyridazin-3-amine]",18.4 nM,"Kb [1, 3]: 79.4 nM"
"CN[C@@H]1CCN(c2ccnc(NC(C)C)c2)C1 [Example 12, 4-[(3R)-3-(Methylamino)pyrrolidin-1-yl]-N-(1-methylethyl)pyridin-2-amine]",19.2 nM,"pA2 [1, 6]: 8.5"
"CN[C@@H]1CCN(c2cnnc(NCC(C)C)c2)C1 [Example 95, 5-[(3R)-3-(Methylamino)pyrrolidin-1-yl]-N-(2-methylpropyl)pyridazin-3-amine]",15 nM,"pA2 [1, 6]: 7.8; Ki [2, 4]: 15 nM"
"CN[C@H]1CCN(c2ccnc(NC3CC4CCC3C4)c2)C1 (stereo partly drawn) [Example 231, N-Bicyclo[2.2.1]hept-2-yl-4-[(3S)-3-(methylamino)pyrrolidin-1-yl]pyridin-2-amine]",8.41 nM,"pA2 [1, 6]: 9"
"CN[C@@H]1CCN(c2ccnc(NC[C@H]3CC[C@H]4C[C@@H]3C4(C)C)c2)C1 [Example 217, N-{[(1S,2S,5S)-6,6-Dimethylbicyclo[3.1.1]hept-2-yl]methyl}-4-[(3R)-3-(methylamino)pyrrolidin-1-yl]pyridin-2-amine]",24.3 nM,"Kb [1, 3]: 31.6 nM"
"CC(C)CNc1cc(N2C[C@H]3CCN[C@H]3C2)ccn1 [Example 257, 4-[(3aR,6aR)-Hexahydropyrrolo[3,4-b]pyrrol-5(1H)-yl]-N-(2-methylpropyl)pyridin-2-amine]",64.5 nM,Kb [1]: 50.1 nM
"CN[C@H]1CCN(c2ccnc(NC3CC4CCC3C4)n2)C1 (stereo partly drawn) [Example 162, N-Bicyclo[2.2.1]hept-2-yl-4-[(3S)-3-(methylamino)pyrrolidin-1-yl]pyrimidin-2-amine]",7.14 nM,"pA2 [1, 6]: 8.1"
"CN[C@@H]1CCN(c2ccnc(NCC3CC3)c2)C1 [Example 4, N-(Cyclopropylmethyl)-4-[(3R)-3-(methylamino)pyrrolidin-1-yl]pyridin-2-amine ditrifluoroacetate]",4.9 nM,"Kb [1, 3]: 1.38 nM"
"CN[C@@H]1CCN(c2ccnc(NCC34CC5CC(CC(C5)C3)C4)c2)C1 [Example 220, Adamantan-1-ylmethyl-[4-(3R)-(3-methylamino-pyrrolidin-1-yl)-pyridin-2-yl]-amine]",6.48 nM,"Kb [1, 3]: 25.1 nM"
"CN[C@@H]1CCN(c2ccnc(NC[C@H]3CC[C@H]4C[C@@H]3C4(C)C)n2)C1 [Example 193, N-{[(1S,2S,5S)-6,6-Dimethylbicyclo[3.1.1]hept-2-yl]methyl}-4-[(3R)-3-(methylamino)pyrrolidin-1-yl]pyrimidin-2-amine]",16 nM,"Kb [1, 3]: 12.6 nM"
"CC(C)CNc1cc(N2CC[C@@H](N)C2)cnn1 [Example 353, 5-[(3R)-3-Aminopyrrolidin-1-yl]-N-(2-methylpropyl)pyridazin-3-amine]",106 nM,
"CC(C)(C)CNc1nccc(N2CC(N)C2)n1 [Example 88, 4-(3-Aminoazetidin-1-yl)-N-(2,2-dimethylpropyl)pyrimidin-2-amine]",42.7 nM,
"CN[C@@H]1CCN(c2ccnc(NCC3CC4CCC3C4)c2)C1 (stereo partly drawn) [Example 253, N-(Bicyclo[2.21]hept-2-ylmethyl)-4-[(3R)-3-(methylamino)pyrrolidin-1-yl]pyridin-2-amine]",4.33 nM,
"CC1(C)C2CCC(CNc3nccc(N4CC[C@@H](N)C4)n3)C1C2 (stereo partly drawn) [Example 106, 4-[(3R)-3-Aminopyrrolidin-1-yl]-N-[(6,6-dimethylbicyclo[3.1.1]hept-2-yl)methyl]pyrimidin-2-amine]",194 nM,

SMILES,"Ki [2, 5]",further results
"CN1CCN(c2ccnc(NCC(C)(C)O)c2)CC1 [Example 241, 2-Methyl-1-{[4-(4-methylpiperazin-1-yl)pyridin-2-yl]amino}propan-2-ol]",837 nM,
"CNC1CN(c2ccnc(NCCCO)n2)C1 [Example 135, 3-({4-[3-(Methylamino)azetidin-1-yl]pyrimidin-2-yl}amino)propan-1-ol]",15.9 nM,
"N[C@H]1CCN(c2ccnc(NCc3ccccc3)c2)C1 [Example 267, 4-[(3S)-3-Aminopyrrolidin-1-yl]-N-benzylpyridin-2-amine]",1530 nM,
"N[C@@H]1CCN(c2cnnc(NC3CCCCC3)c2)C1 [Example 365, 5-[(3R)-3-Aminopyrrolidin-1-yl]-N-cyclohexylpyridazin-3-amine]",508 nM,
"c1nnc(NC2CCCC2)cc1N1CCNCC1 [Example 354, N-Cyclopentyl-5-piperazin-1-ylpyridazin-3-amine]",2130 nM,
"CN[C@H]1CCN(c2ccnc(NC(C)(C)C)c2)C1 [Example 233, N-tert-Butyl-4-[(3S)-3-(methylamino)pyrrolidin-1-yl]pyridin-2-amine]",215 nM,
"CN1CCN(c2cnnc(NCC(C)(C)C)c2)CC1 [Example 404, 5-(4-methylpiperazin-1-yl)-N-neopentylpyridazin-3-amine dihydro chloride]",4300 nM,
"c1ccc(CCNc2cc(N3CCNCC3)cnn2)cc1 [Example 362, N-(2-Phenylethyl)-5-piperazin-1-ylpyridazin-3-amine]",2210 nM,
"CN[C@H]1CCN(c2ccnc(NC3C[C@H]4C[C@@H](C3C)C4(C)C)c2)C1 (stereo partly drawn) [Example 230, 4-[(3S)-3-(Methylamino)pyrrolidin-1-yl]-N-[(1S,5R)-2,6,6-trimethylbicyclo[3.1.1]hept-3-yl]pyridin-2-amine]",276 nM,
"c1cc(N2CCNCC2)cc(NCC2CC2)n1 [Example 35, N-(Cyclopropylmethyl)-4-piperazin-1-ylpyridin-2-amine]",74.7 nM,"Ki [2, 4]: 25.6 nM"
"c1cc(N2CCNCC2)nc(NCC2CC2)n1 [Example 66, Cyclopropylmethyl-(4-piperazin-1-yl-pyrimidin-2-yl)-amine]",56.8 nM,"Ki [2, 4]: 12.2 nM"
"CN1CCN(c2ccnc(NCc3ccc(F)cc3)n2)CC1 [Example 58, N-(4-Fluorobenzyl)-4-(4-methylpiperazin-1-yl)pyrimidin-2-amine]",342 nM,
"N[C@@H]1CCN(c2cnnc(NCc3ccc(F)cc3)c2)C1 [Example 342, 5-[(3R)-3-Aminopyrrolidin-1-yl]-N-(4-fluorobenzyl)pyridazin-3-amine]",936 nM,
"CN[C@H]1CCN(c2cnnc(NCCOC)c2)C1 [Example 376, N-(2-Methoxyethyl)-5-[(3S)-3-(methylamino)pyrrolidin-1-yl]pyridazin-3-amine]",> 10000 nM,
"CN[C@H]1CCN(c2ccnc(NC[C@H]3CC[C@H]4C[C@@H]3C4(C)C)c2)C1 [Example 224, N-{[(1S,2S,5S)-6,6-Dimethylbicyclo[3.1.1]hept-2-yl]methyl}-4-[(3S)-3-(methylamino)pyrrolidin-1-yl]pyridin-2-amine]",239 nM,
"NC1CN(c2cnnc(NC3CCCC3)c2)C1 [Example 326, 5-(3-Aminoazetidin-1-yl)-N-cyclopentylpyridazin-3-amine]",2740 nM,
"N[C@H]1CCN(c2ccnc(NCC3CCCC3)n2)C1 [Example 149, 4-[(3S)-3-Aminopyrrolidin-1-yl]-N-(cyclopentylmethyl)pyrimidin-2-amine]",23.8 nM,
"CN[C@@H]1CCN(c2cnnc(NCCc3ccccc3)c2)C1 [Example 372, 5-[(3R)-3-(Methylamino)pyrrolidin-1-yl]-N-(2-phenylethyl)pyridazin-3-amine]",139 nM,
